Patent publication US9936701B2, “Herbicidal compounds” (Syngenta Participations AG, priority 2013, dated 2018)

tested on: a variety of test species; assay: Post-emergence herbicidal activity (glasshouse, sprayed after 8 days cultivation, evaluated after 13 days); format: in vivo; parameters: key: 5=total damage to plant; 0=no damage to plant; conditions: Abutilon theophrasti, rate 1000 g/Ha, scale 0-5
Description: (§1) Seeds of a variety of test species were sown in standard soil in pots. After 8 days cultivation (post-emergence) under controlled conditions in a glasshouse (at 24/16° C., day/night; 14 hours light; 65% humidity), the plants were sprayed with an aqueous spray solution derived from the formulation of the technical active ingredient in acetone/water (50:50) solution containing 0.5% Tween 20 (polyoxyethelyene sorbitan monolaurate, CAS RN 9005-64-5). The test plants were then grown in a glasshouse under controlled conditions (at 24/16° C., day/night; 14 hours light; 65% humidity) and watered twice daily. After 13 days, the test was evaluated (5=total damage to plant; 0=no damage to plant).

| Structure (SMILES) | ABUTH (Abutilon theophrasti) damage score, application post-emergence |
| --- | --- |
| COc1ccccc1OC(=O)OC1C(C)=C(Cl)C(=O)N1c1cc(C(C)(C)C)on1 (stereo not shown) [A87] | 2 |
| CC1=C(Cl)C(=O)N(c2cc(C(C)(C)C)on2)C1OC(=O)OCC(C)(C)C (stereo not shown) [A88] | 5 |
| CC1=C(Cl)C(=O)N(c2cc(C(C)(C)C)on2)C1OC(=O)c1ccc(C(F)(F)F)nc1 (stereo not shown) [A90] | 4 |
| CC1=C(Cl)C(=O)N(c2cc(C(C)(C)C)on2)C1OC(=O)c1sccc1Cl (stereo not shown) [A91] | 2 |
| CC1=C(Cl)C(=O)N(c2cc(C(C)(C)C)on2)C1OC(=O)c1ccno1 (stereo not shown) [A92] | 5 |

same assay, conditions: Alopecurus myosuroides, rate 1000 g/Ha, scale 0-5

| Structure (SMILES) | ALOMY (Alopecurus myosuroides) damage score, application post-emergence |
| --- | --- |
| COc1ccccc1OC(=O)OC1C(C)=C(Cl)C(=O)N1c1cc(C(C)(C)C)on1 (stereo not shown) [A87] | 2 |
| CC1=C(Cl)C(=O)N(c2cc(C(C)(C)C)on2)C1OC(=O)OCC(C)(C)C (stereo not shown) [A88] | 5 |
| CC1=C(Cl)C(=O)N(c2cc(C(C)(C)C)on2)C1OC(=O)c1ccc(C(F)(F)F)nc1 (stereo not shown) [A90] | 4 |
| CC1=C(Cl)C(=O)N(c2cc(C(C)(C)C)on2)C1OC(=O)c1sccc1Cl (stereo not shown) [A91] | 2 |
| CC1=C(Cl)C(=O)N(c2cc(C(C)(C)C)on2)C1OC(=O)c1ccno1 (stereo not shown) [A92] | 5 |

same assay, conditions: Amaranthus retroflexus, rate 1000 g/Ha, scale 0-5

| Structure (SMILES) | AMARE (Amaranthus retroflexus) damage score, application post-emergence |
| --- | --- |
| CC1=C(Cl)C(=O)N(c2cc(C(C)(C)C)on2)C1OC(=O)SCC(C)C (stereo not shown) [A82] | 2 |
| COc1ccccc1OC(=O)OC1C(C)=C(Cl)C(=O)N1c1cc(C(C)(C)C)on1 (stereo not shown) [A87] | 4 |
| CC1=C(Cl)C(=O)N(c2cc(C(C)(C)C)on2)C1OC(=O)OCC(C)(C)C (stereo not shown) [A88] | 5 |
| CC1=C(Cl)C(=O)N(c2cc(C(C)(C)C)on2)C1OC(=O)c1ccc(C(F)(F)F)nc1 (stereo not shown) [A90] | 5 |
| CC1=C(Cl)C(=O)N(c2cc(C(C)(C)C)on2)C1OC(=O)c1sccc1Cl (stereo not shown) [A91] | 5 |
| CC1=C(Cl)C(=O)N(c2cc(C(C)(C)C)on2)C1OC(=O)c1ccno1 (stereo not shown) [A92] | 5 |

same assay, conditions: Echinochloa crus-galli, rate 1000 g/Ha, scale 0-5

| Structure (SMILES) | ECHCG (Echinochloa crus-galli) damage score, application post-emergence |
| --- | --- |
| CC1=C(Cl)C(=O)N(c2cc(C(C)(C)C)on2)C1OC(=O)SCC(C)C (stereo not shown) [A82] | 2 |
| COc1ccccc1OC(=O)OC1C(C)=C(Cl)C(=O)N1c1cc(C(C)(C)C)on1 (stereo not shown) [A87] | 3 |
| CC1=C(Cl)C(=O)N(c2cc(C(C)(C)C)on2)C1OC(=O)OCC(C)(C)C (stereo not shown) [A88] | 5 |
| CC1=C(Cl)C(=O)N(c2cc(C(C)(C)C)on2)C1OC(=O)c1ccc(C(F)(F)F)nc1 (stereo not shown) [A90] | 2 |
| CC1=C(Cl)C(=O)N(c2cc(C(C)(C)C)on2)C1OC(=O)c1sccc1Cl (stereo not shown) [A91] | 1 |
| CC1=C(Cl)C(=O)N(c2cc(C(C)(C)C)on2)C1OC(=O)c1ccno1 (stereo not shown) [A92] | 5 |

same assay, conditions: Setaria faberi, rate 1000 g/Ha, scale 0-5

| Structure (SMILES) | SETFA (Setaria faberi) damage score, application post-emergence |
| --- | --- |
| CC1=C(Cl)C(=O)N(c2cc(C(C)(C)C)on2)C1OC(=O)SCC(C)C (stereo not shown) [A82] | 2 |
| COc1ccccc1OC(=O)OC1C(C)=C(Cl)C(=O)N1c1cc(C(C)(C)C)on1 (stereo not shown) [A87] | 2 |
| CC1=C(Cl)C(=O)N(c2cc(C(C)(C)C)on2)C1OC(=O)OCC(C)(C)C (stereo not shown) [A88] | 5 |
| CC1=C(Cl)C(=O)N(c2cc(C(C)(C)C)on2)C1OC(=O)c1ccc(C(F)(F)F)nc1 (stereo not shown) [A90] | 3 |
| CC1=C(Cl)C(=O)N(c2cc(C(C)(C)C)on2)C1OC(=O)c1sccc1Cl (stereo not shown) [A91] | 1 |
| CC1=C(Cl)C(=O)N(c2cc(C(C)(C)C)on2)C1OC(=O)c1ccno1 (stereo not shown) [A92] | 5 |

same assay, conditions: Zea mays, rate 1000 g/Ha, scale 0-5

| Structure (SMILES) | ZEAMX (Zea mays) damage score, application post-emergence |
| --- | --- |
| CC1=C(Cl)C(=O)N(c2cc(C(C)(C)C)on2)C1OC(=O)SCC(C)C (stereo not shown) [A82] | 1 |
| COc1ccccc1OC(=O)OC1C(C)=C(Cl)C(=O)N1c1cc(C(C)(C)C)on1 (stereo not shown) [A87] | 0 |
| CC1=C(Cl)C(=O)N(c2cc(C(C)(C)C)on2)C1OC(=O)OCC(C)(C)C (stereo not shown) [A88] | 5 |
| CC1=C(Cl)C(=O)N(c2cc(C(C)(C)C)on2)C1OC(=O)c1ccc(C(F)(F)F)nc1 (stereo not shown) [A90] | 1 |
| CC1=C(Cl)C(=O)N(c2cc(C(C)(C)C)on2)C1OC(=O)c1sccc1Cl (stereo not shown) [A91] | 0 |
| CC1=C(Cl)C(=O)N(c2cc(C(C)(C)C)on2)C1OC(=O)c1ccno1 (stereo not shown) [A92] | 1 |

tested on: a variety of test species; assay: Pre-emergence herbicidal activity (glasshouse, sprayed one day after sowing, evaluated after 13 days); format: in vivo; parameters: key: 5=total damage to plant; 0=no damage to plant; conditions: ABUTH, application pre-emergence, rate 1000 g/Ha, scale 0-5
Description: as §1, with “After” for “After 8 days”, “for one day (pre-emergence)” for “(post-emergence)”

| Structure (SMILES) | Pre-emergence herbicidal damage score, ABUTH |
| --- | --- |
| CC1=C(Cl)C(=O)N(c2cc(C(C)(C)C)on2)C1OC(=O)SCC(C)C (stereo not shown) [A82] | 1 |
| COc1ccccc1OC(=O)OC1C(C)=C(Cl)C(=O)N1c1cc(C(C)(C)C)on1 (stereo not shown) [A87] | 2 |
| CC1=C(Cl)C(=O)N(c2cc(C(C)(C)C)on2)C1OC(=O)OCC(C)(C)C (stereo not shown) [A88] | 5 |
| CC1=C(Cl)C(=O)N(c2cc(C(C)(C)C)on2)C1OC(=O)c1ccc(C(F)(F)F)nc1 (stereo not shown) [A90] | 4 |
| CC1=C(Cl)C(=O)N(c2cc(C(C)(C)C)on2)C1OC(=O)c1sccc1Cl (stereo not shown) [A91] | 1 |
| CC1=C(Cl)C(=O)N(c2cc(C(C)(C)C)on2)C1OC(=O)c1ccno1 (stereo not shown) [A92] | 5 |

same assay, conditions: ALOMY, application pre-emergence, rate 1000 g/Ha, scale 0-5

| Structure (SMILES) | Pre-emergence herbicidal damage score, ALOMY |
| --- | --- |
| CC1=C(Cl)C(=O)N(c2cc(C(C)(C)C)on2)C1OC(=O)SCC(C)C (stereo not shown) [A82] | 0 |
| COc1ccccc1OC(=O)OC1C(C)=C(Cl)C(=O)N1c1cc(C(C)(C)C)on1 (stereo not shown) [A87] | 2 |
| CC1=C(Cl)C(=O)N(c2cc(C(C)(C)C)on2)C1OC(=O)OCC(C)(C)C (stereo not shown) [A88] | 4 |
| CC1=C(Cl)C(=O)N(c2cc(C(C)(C)C)on2)C1OC(=O)c1ccc(C(F)(F)F)nc1 (stereo not shown) [A90] | 2 |
| CC1=C(Cl)C(=O)N(c2cc(C(C)(C)C)on2)C1OC(=O)c1sccc1Cl (stereo not shown) [A91] | 2 |
| CC1=C(Cl)C(=O)N(c2cc(C(C)(C)C)on2)C1OC(=O)c1ccno1 (stereo not shown) [A92] | 4 |

same assay, conditions: AMARE, application pre-emergence, rate 1000 g/Ha, scale 0-5

| Structure (SMILES) | Pre-emergence herbicidal damage score, AMARE |
| --- | --- |
| CC1=C(Cl)C(=O)N(c2cc(C(C)(C)C)on2)C1OC(=O)SCC(C)C (stereo not shown) [A82] | 3 |
| COc1ccccc1OC(=O)OC1C(C)=C(Cl)C(=O)N1c1cc(C(C)(C)C)on1 (stereo not shown) [A87] | 3 |
| CC1=C(Cl)C(=O)N(c2cc(C(C)(C)C)on2)C1OC(=O)OCC(C)(C)C (stereo not shown) [A88] | 5 |
| CC1=C(Cl)C(=O)N(c2cc(C(C)(C)C)on2)C1OC(=O)c1ccc(C(F)(F)F)nc1 (stereo not shown) [A90] | 5 |
| CC1=C(Cl)C(=O)N(c2cc(C(C)(C)C)on2)C1OC(=O)c1sccc1Cl (stereo not shown) [A91] | 4 |
| CC1=C(Cl)C(=O)N(c2cc(C(C)(C)C)on2)C1OC(=O)c1ccno1 (stereo not shown) [A92] | 5 |

same assay, conditions: ECHCG, application pre-emergence, rate 1000 g/Ha, scale 0-5

| Structure (SMILES) | Pre-emergence herbicidal damage score, ECHCG |
| --- | --- |
| CC1=C(Cl)C(=O)N(c2cc(C(C)(C)C)on2)C1OC(=O)SCC(C)C (stereo not shown) [A82] | 1 |
| COc1ccccc1OC(=O)OC1C(C)=C(Cl)C(=O)N1c1cc(C(C)(C)C)on1 (stereo not shown) [A87] | 1 |
| CC1=C(Cl)C(=O)N(c2cc(C(C)(C)C)on2)C1OC(=O)OCC(C)(C)C (stereo not shown) [A88] | 5 |
| CC1=C(Cl)C(=O)N(c2cc(C(C)(C)C)on2)C1OC(=O)c1ccc(C(F)(F)F)nc1 (stereo not shown) [A90] | 1 |
| CC1=C(Cl)C(=O)N(c2cc(C(C)(C)C)on2)C1OC(=O)c1sccc1Cl (stereo not shown) [A91] | 0 |
| CC1=C(Cl)C(=O)N(c2cc(C(C)(C)C)on2)C1OC(=O)c1ccno1 (stereo not shown) [A92] | 5 |

same assay, conditions: SETFA, application pre-emergence, rate 1000 g/Ha, scale 0-5

| Structure (SMILES) | Pre-emergence herbicidal damage score, SETFA |
| --- | --- |
| CC1=C(Cl)C(=O)N(c2cc(C(C)(C)C)on2)C1OC(=O)SCC(C)C (stereo not shown) [A82] | 1 |
| COc1ccccc1OC(=O)OC1C(C)=C(Cl)C(=O)N1c1cc(C(C)(C)C)on1 (stereo not shown) [A87] | 1 |
| CC1=C(Cl)C(=O)N(c2cc(C(C)(C)C)on2)C1OC(=O)OCC(C)(C)C (stereo not shown) [A88] | 5 |
| CC1=C(Cl)C(=O)N(c2cc(C(C)(C)C)on2)C1OC(=O)c1ccc(C(F)(F)F)nc1 (stereo not shown) [A90] | 2 |
| CC1=C(Cl)C(=O)N(c2cc(C(C)(C)C)on2)C1OC(=O)c1sccc1Cl (stereo not shown) [A91] | 0 |
| CC1=C(Cl)C(=O)N(c2cc(C(C)(C)C)on2)C1OC(=O)c1ccno1 (stereo not shown) [A92] | 4 |

same assay, conditions: ZEAMX, application pre-emergence, rate 1000 g/Ha, scale 0-5

| Structure (SMILES) | Pre-emergence herbicidal damage score, ZEAMX |
| --- | --- |
| CC1=C(Cl)C(=O)N(c2cc(C(C)(C)C)on2)C1OC(=O)SCC(C)C (stereo not shown) [A82] | 0 |
| COc1ccccc1OC(=O)OC1C(C)=C(Cl)C(=O)N1c1cc(C(C)(C)C)on1 (stereo not shown) [A87] | 0 |
| CC1=C(Cl)C(=O)N(c2cc(C(C)(C)C)on2)C1OC(=O)OCC(C)(C)C (stereo not shown) [A88] | 3 |
| CC1=C(Cl)C(=O)N(c2cc(C(C)(C)C)on2)C1OC(=O)c1ccc(C(F)(F)F)nc1 (stereo not shown) [A90] | 1 |
| CC1=C(Cl)C(=O)N(c2cc(C(C)(C)C)on2)C1OC(=O)c1sccc1Cl (stereo not shown) [A91] | 0 |
| CC1=C(Cl)C(=O)N(c2cc(C(C)(C)C)on2)C1OC(=O)c1ccno1 (stereo not shown) [A92] | 3 |
